The structures appear in SMILES notation.

`CCC(=O)N(CC)c1ccc(C(=O)C=CN(C)C)cc1` displayed a melting point of 75 to 77 °C.
`NS(=O)(=O)c1ccc(-n2nc(C(F)(F)F)cc2-c2ccc(-c3ccco3)cc2)cn1` showed a melting point of 140 to 170 °C.
Consider `COc1cc2c(Nc3cc(CN4CCCC4)c(O)c(CN4CCCC4)c3)ncnc2c(OC)c1OC`, for which the melting point lay in the range of 189 to 191 °C.
To `COc1ccc(C(=O)O)c2c1oc1ccc(Cl)cc12` belongs 264 to 276 °C; to `CC1CCCCN1C(=O)c1nc(-c2ccccc2)nc2ccccc12` (stereo not given), 150 °C; to `COc1cc(CC(=O)NCCCc2ccc(C)c(C)c2)ccc1OCCNCCO`, 76 to 79 °C.
To `OCc1ccccc1NC1CCN(Cc2ccccc2)CC1` belongs 164 to 168 °C; to `O=C(O)C1CC2CC(CP(=O)(O)O)CCC2CN1` (stereo not given), 208 to 211 °C.
As to `O=S(=O)(NCc1ccncc1)c1ccc(-c2ccccc2Cl)cc1`, the melting point lay within 138 to 141 °C.
`CCN(CC)SNc1ccc(Oc2ccc(C(F)(F)F)cc2Cl)cc1F` yielded a melting point of 58 to 60 °C.
`COC(=O)C1=C(C(=O)OC)C2(c3ccc(Cl)cc3)CCC1O2` (stereo not given) displayed a melting point of 90 to 91 °C.
The value for `CCCCCCCCCN(CCC)CCC(O)(P(=O)(O)O)P(=O)(O)O` was 45 to 47 °C; that for `O=C(O)CNc1cc(C(=O)O)nc2ccccc12` was 260 to 261 °C; that for `c1ccc(CCc2nc3cccc4c3n2CCC4)cc1` was 107 to 108 °C.
`Cc1[nH]c2ccc(CCN(C)C3CCOCC3)cc2c1C(=O)OCc1ccccc1` registered a melting point of 109 to 111 °C.
Take `COC(=O)C(C)(C)N1CCC(N(Cc2ccc(-c3ccc(C(F)(F)F)cc3)cc2)C(=O)Cn2c(CCc3cccc(F)c3F)nc(=O)c3cccnc32)CC1`: the melting point was found to be 150 °C.
Consider `CCCCc1cc2cc(NC(C)=O)ccc2o1`, for which the melting point was 71 to 73 °C.
To `COC(=O)CCCNC(=O)CCCN(C(=O)c1cc(OC)c(OC)c(OC)c1)c1c(C)cccc1C` belongs 97 to 99 °C; to `CC(=O)c1ccccc1OC1SCC(O)C(O)C1O` (stereo not given), 102 to 105 °C.
The value for `CC(=O)OCC1(c2ccc(F)cc2)CCC(=O)CC1` was 80 to 84 °C.
To `CCOC(=O)OCC(I)=C(I)I` belongs 49 to 50 °C; to `O=C(Nc1ccc(C(=O)N2Cc3cccn3Cc3ccccc32)cc1)c1ccccc1Cl`, 228 to 230 °C; to `NC(=O)c1cc(OC(F)(F)F)ccc1O`, 188 to 190 °C.
For `Cc1cccc(C)c1N1CCCCS/C1=N/N=C\c1ccc(-c2ncn(-c3ccc(OC(F)(F)F)cc3)n2)cc1`, the melting point was 100 to 106 °C.
The value for `CN1CC(=O)c2ccc3ccccc3c2S1(=O)=O` was 192 to 193 °C; that for `CCCc1c2nc(C(=O)OCC)cc(C)c2cc2c(=O)cc(C(=O)OCC)oc12` was 165 to 168 °C; that for `CC(C)=CCNc1cccc(-c2ccnc3c(C(=O)c4cccs4)cnn23)c1` was 116 to 118 °C.
The value for `COC(=O)c1nc(OC)c2ccccc2n1` was 129 to 130 °C; that for `CC(C)N1C(=O)c2ccccc2Oc2ccccc21` was 102 to 103 °C; that for `O=C(CCCOc1cccc(CN2CCCCC2)c1)Nc1nc(CCc2ccccc2)n[nH]1` was 192 to 193 °C.
To `Cc1cc(I)c(C(N)=O)cc1C` belongs 195 to 197 °C; to `CC(=O)NCCNC(=O)c1[nH]c(C)c(-c2nc3ccc(C(=O)c4ccccc4)cc3[nH]2)c1C`, 272 to 273 °C; to `COc1ccc(-c2nc(C)c(C(=O)Nc3nnn[nH]3)s2)cc1`, 275 to 278 °C.
Turning to `CCCCCCCCCCCCc1ccc2c(c1)C(=O)c1ccccc1C2=O`, the melting point was 99 to 105 °C.
To `CCOC(=O)C(CC(=O)c1ccccc1Cl)(NC(C)=O)C(=O)OCC` belongs 157 to 158 °C.
To `CC(C)c1ccc(S(=O)(=O)c2ccccc2)cc1S(=O)(=O)NC1CCN(C(=O)c2ccccc2F)CC1` belongs 210 to 212 °C.
To `CCNc1nc(OC)c(C(=O)NCCN(CC)CC)nc1Cl` belongs 142 °C.
In the case of `Cc1cccc(CNc2ncnc3nc[nH]c23)c1O`, the melting point lay within 276 to 277 °C.
To `CSCC1COCc2nc3c(N)nc4ccccc4c3n21` (stereo not given) belongs 105 to 108 °C; to `CCOC(=O)C1(C(=O)OCC)CC(c2ccc(Cl)cc2N)=CN1C(C)=O`, 152 to 153 °C.
For `CC(=O)OC1CSC(Oc2cccnc2C(=O)N(C)C)C(OC(C)=O)C1OC(C)=O` (stereo not given), the melting point was 85 to 89 °C.
To `CC(=O)c1ccc(OCCCN2CCC(c3nsc4cc(F)ccc34)CC2)c(O)c1` belongs 135 to 137 °C.
The value for `CCOC(=O)c1cn(-c2ccc(F)cc2F)c2nc(N3CCC(N)C3)c(F)cc2c1=O` (stereo not given) was 200 to 202 °C; that for `O=C(NCC1Cc2cccc(-c3ccc(Cl)cc3Cl)c2O1)OCc1ccccc1` (stereo not given) was 87 to 89 °C; that for `FC(F)(F)c1csc(Nc2cc3ccccc3cn2)n1` was 200 to 203 °C.
To `CS(=O)(=O)c1ccccc1NC(=O)c1ccccc1O` belongs 142 to 145 °C.
On to `CN(C)CCCc1ccc(OCCCNc2nc(N)nn2C)cc1`, for which the melting point lay in the range of 112 to 114 °C.
To `Cc1c(OCc2ccccc2)c(=O)ccn1CCOC(=O)C(C)(C)C` belongs 103 to 106 °C.
The value for `COC(=O)C1=C(C)N(CCCc2ccccc2)C(C)=C(C(=O)OC)C1c1ccc(OC)c(OC)c1` was 97 to 98 °C.
The value for `CC(C)c1nc(COCc2ccccc2)n(CCO)c1Sc1cc(Cl)cc(Cl)c1` was 78 to 80 °C; that for `O=C(O)COc1cccc2c1Cc1sc(SCCC(c3ccccc3)c3ccccc3)nc1-2` was 100 to 103 °C.
As to `O=C1N(Cc2nccnc2C(F)(F)F)c2ccccc2C12COc1cc3c(cc12)OCCO3` (stereo not given), the melting point fell in the range of 230 to 232 °C.
To `CCNC(=O)/C=C/c1cnoc1-c1ccccc1` belongs 156 to 157 °C.
`O=Cc1ccc(Oc2ccc([N+](=O)[O-])cc2)cc1` displayed a melting point of 101 to 104 °C.
To `CNC(=C[N+](=O)[O-])NCCSCC1(OC)C=CC=NC1` (stereo not given) belongs 146 to 147 °C; to `CCOC(=O)C1=C(COCc2ccc(CN3CCOCC3)o2)NC(C)=C(C(=O)OC)C1c1ccccc1Cl` (stereo not given), 85 to 87 °C; to `O=c1[nH]c(=S)[nH]cc1CCCc1ccccc1`, 180 to 182 °C.
To `FC(F)(F)c1ccc(CN2CC3(COc4ccc(-c5ccncc5)cc43)c3ccccc32)o1` (stereo not given) belongs 108 to 110 °C; to `O=C(Nc1ccc(Cl)cc1)Oc1ccc2c(c1)NCCC2`, 118 °C.
To `CC(C)NCC(O)c1ccccc1` (stereo not given) belongs 90 °C.
As for `CC(C)C(=O)Nc1cn(-c2cncc(F)c2)nc1C=O`, the melting point lay within 140 to 142 °C.
The molecule `CC(=O)NC[C@H]1CN(c2ccc(-c3nnc(CCCl)s3)c(F)c2)C(=O)O1` gave a melting point of 178 to 180 °C.
`Oc1cc(O)c2ccccc2n1` yielded a melting point of 350 to 355 °C.
To `Cc1scc2c1C(=O)Nc1ccccc1N2C(=O)Cl` belongs 235 to 236 °C.
Regarding `O=C(CCc1cccc(C(F)(F)F)c1)NNC(=O)c1ccc2ncsc2c1`, the melting point fell in the range of 206 to 207 °C.
To `CNC(=S)C1(c2cnc3ccccc3c2)CCCCC1=O` (stereo not given) belongs 235 to 236 °C.
The value for `O=C1NCc2ccsc21` was 104 to 105 °C; that for `CC(=O)OCCN1C(=O)N2CCOC2(c2ccccc2)c2cc(Cl)ccc21` (stereo not given) was 121 to 123 °C; that for `CC(C)NCC(O)COc1ccc(C2=NNC(=O)CC2)c2ccccc12` (stereo not given) was 131 to 135 °C.
Consider `CC(C(=O)O)c1ccc2c(Br)c(OCc3ccc4ccccc4n3)ccc2c1` (stereo not given), for which the melting point was 210 to 212 °C.
To `OCc1cccc(-c2ccc3nc(-c4ccc(Cl)cc4)cn3c2)c1` belongs 181 to 182 °C; to `Clc1ccc2c(c1)CCn1ccnc1C2=C1CCNCC1`, 197 °C.
The value for `COc1ccc(C2COC(c3c(F)cccc3Cl)=N2)cc1-c1ccccc1` (stereo not given) was 80.5 to 82 °C; that for `O=C(O)c1ccc2c(c1)Sc1cc3c(cc1C=C2)CCC3` was 103 to 104 °C.
The value for `CC(C)(C)c1ccc(OP2N(c3ccccc3)P(Oc3ccc(C(C)(C)C)cc3C(C)(C)C)N2c2ccccc2)c(C(C)(C)C)c1` (stereo not given) was 162 to 166 °C; that for `COc1cc(OC)c(-c2cc3ccccc3n2C)cc1C=CC(=O)c1ccc(C(=O)O)cc1` was 157 to 160 °C; that for `O=S(=O)(c1ccc(Cl)cc1)N1CCCC1c1ccccc1` (racemic) was 119 °C.
`CC(=O)NC[C@H]1CN(c2cc(F)c(N3CCC4(CC3)CO4)c(F)c2)C(=O)O1` gave a melting point of 160 to 162 °C.
Take `O=C1CC(c2c(Cl)cccc2Cl)CN1` (stereo not given): the melting point was 153 to 154 °C.
The value for `CCCc1c(C(N)=O)sc(SC)c1-c1oncc1-c1ccccc1` was 140 to 141 °C; that for `O=C(O)c1ccc2c(c1)C(=O)c1ccccc1OC2` was 264 to 269 °C.
To `CC1C(=O)NCC1C(N)=O` (stereo not given) belongs 169 to 171 °C.
To `CC(=O)Nc1ccccc1CSc1nc2ccccc2[nH]1` belongs 218 to 222 °C.
Regarding `O=C(Nc1cccc(S(=O)(=O)N2CCOCC2)c1)c1cnn2c(C(F)(F)F)cc(-c3ccc(C(F)(F)F)cc3)nc12`, the melting point worked out at 233 °C.
To `O=c1cc(-c2ccc(F)cc2)oc(N2CCOCC2)c1` belongs 216 to 217 °C.
Molecule `CS(=O)(=O)c1ccc(-c2c(-c3ccccc3)sc3ccccc23)cc1` came in with a melting point of 173 to 174 °C.
For `CON(C)C(=O)NC(CSC(C)=O)Cc1ccccc1` (stereo not given), the melting point lay within 68 to 70 °C.
In turn, `O=C1CC2OC(CS(=O)c3ccccc3)CN12` (racemic) displayed a melting point of 119 to 120 °C.
To `Cc1cc2c(cc1F)c(C#N)c(-c1ccc(S(=O)(=O)N[C@H](C)C(F)(F)F)cn1)n2C1CCCC1` belongs 191 to 193 °C.
The molecule `Clc1cnc(Cl)c2cc(Br)ccc12` had a melting point of 134 to 135 °C.

For orientation: melting point means the temperature, or range, at which the solid turns liquid.

For the origin of these results see a melting point compilation (Tetko et al.; mined from patent text by program, amines drawn as free bases though some values may be those of a salt).
